The record followed here is US10793571B2, “Uses of diazepane derivatives” (Dana-Farber Cancer Institute, Inc., priority 2014, dated 2020).

As a reminder, the IC50 is the concentration needed to halve the response being measured. Low values mean greater potency, high ones weaker potency. As a reminder, the Kd is the constant that tells how readily two partners part at equilibrium.

A value given as a limit tells only on which side of the number the result lay.

The target of one assay is T1, BRD4.1 (Homo sapiens, UniProt O60885).
T1 construct: final concentrations of BRD4.1 at 80 nM; His tag (inferred from the Ni-coated acceptor bead)
The assay can be described thus: Acetyl-histone binding assay (AlphaScreen), percent inhibition of BRD4.1. The note with it: BRD4.1, 2.5 μM compound concentration, in vitro; read-out: % INHIB (at 2.5 uM). As to the method: (§1) Assays were performed with minor modifications from the manufacturer's protocol (PerkinElmer, USA). All reagents were diluted in 50 mM HEPES, 150 mM NaCl, 0.1% w/v BSA, and 0.01% w/v Tween^□ 20 at pH 7.5 and allowed to equilibrate to room temperature prior to addition to plates. After addition of Alpha beads to master solutions, all subsequent steps were performed in low light conditions. […] Addition to wells was performed with either a multichannel pipet (for optimization experiments) or a Biotek EL406 liquid handler. After a 1000-rpm spin-down for 1 minute, 100 nL of the solutions of the compounds of the invention from stock plates were added by pin transfer using a Janus Workstation (PerkinElmer, USA). The streptavidin-coated donor beads (25 μg/ml final) were added as with previous solution in a 2x, 10 μL volume. Following this addition, the plates were sealed with foil to block light exposure and to prevent evaporation. The plates were spun down again at 1000 rpm for 1 minute. Next, the plates were incubated in the room with the plate reader (for temperature equilibration) for 1.5 hour prior to reading the assay.

A further assay concerns MOLM-13. The assay can be described thus: Cellular assay (ATPlite cell viability), MOLM-13. The class given is cell-based. Particulars: MOLM-13 cell line. As to the method:
(§2) The compounds of the invention are also evaluated in the BRD4 dependant cell line for the cellular activity to generate cellular IC50 values.
(§3) Cells (e.g., BRD4 dependant cells) were counted and adjusted to 60,000 cells/mL. Using a Biotek EL406, 50 μL, of the cells in media were distributed into 384 well white plates from Thermo. Immediately after plating, compounds of the invention in DMSO were distributed to plates. For large plate sets, cells were returned to a 37° C. incubator while not in use. The compounds were added to plates using a 100 nL 384 well pin transfer manifold on a Janus workstation. Stocks were arrayed in 10 point quadruplicate dose response in DMSO stock in 384-well Greiner compound plates. After addition of the compounds, plates were incubated for three days in a 37° C. incubator. Cell viability was read out using ATPlite from Perkin Elmer. Plates were removed from the incubator and brought to room temperature prior to use. Lyophilized powder was resuspended in lysis buffer and diluted 1:2 with DI water. 25 μL of this solution was added to each well using the Biotek liquid handler. Plates were sealed with adherent aluminum seals prior to vortexing and spinning down at 1000 g for 1 minute. Plates were incubated for 15 minutes at room temperature before signal was read on an Envision Plate Reader.
(ATP-based viability assays read luminescence as a measure of living cells.)

A further assay addresses LRRK2 (Homo sapiens, UniProt Q5S007). The assay can be described thus: LRRK2 IC50. The class given is biochemical.
The test system of another assay is TF-1. The assay can be described thus: Cellular assay (ATPlite cell viability), TF-1. The class given is cell-based. Particulars: TF-1 cell line. As to the method: as §2, §3
In another assay the test system is MV411. The assay can be described thus: Cellular assay (ATPlite cell viability), MV411. It is filed as cell-based. Particulars: MV411 cell line. As to the method:
as §2, §3

The subject of a further assay is 797. The assay can be described thus: Cellular assay (ATPlite cell viability), 797. The note with it: 797 cell line. The class given is cell-based. As to the method: as §2, §3
The subject of another assay is NOMO1. The assay can be described thus: Cellular assay (ATPlite cell viability), NOMO1. Particulars: NOMO1 cell line. It is filed as cell-based. As to the method:
as §2, §3

The subject of the next assay is Kasumi-1. The assay can be described thus: Cellular assay (ATPlite cell viability), Kasumi-1. It is filed as cell-based. Particulars: Kasumi-1 cell line. As to the method:
as §2, §3

In assay [1] the target is T2, BRD4 (Homo sapiens, UniProt O60885). The assay can be described thus: BRD4 IC50 (first BRD4 value listed in Table 2). It is filed as binding. Particulars: first BRD4 IC50 listed per compound. As to the method:
as §1

A further assay concerns the target BRDT (Homo sapiens, UniProt Q58F21). The assay can be described thus: BRDT IC50. It is filed as binding.
The target in assay [2] is T2, BRD4. The assay can be described thus: BRD4 IC50 (second BRD4 value listed in Table 2). It is filed as binding. The note with it: second BRD4 IC50 listed per compound.
The target of assay [3] is T3, CREBBP (Homo sapiens, UniProt Q92793). The assay can be described thus: CREBBP KD (DiscoveRx). It is filed as binding.
In assay [4] the target is T3, CREBBP. The assay can be described thus: CREBBP IC50. The class given is binding.
In assay [5] the target is T2, BRD4. The assay can be described thus: BRD4 KD (DiscoveRx). The class given is binding.

Chain of LRRK2 (Q5S007 whole entry): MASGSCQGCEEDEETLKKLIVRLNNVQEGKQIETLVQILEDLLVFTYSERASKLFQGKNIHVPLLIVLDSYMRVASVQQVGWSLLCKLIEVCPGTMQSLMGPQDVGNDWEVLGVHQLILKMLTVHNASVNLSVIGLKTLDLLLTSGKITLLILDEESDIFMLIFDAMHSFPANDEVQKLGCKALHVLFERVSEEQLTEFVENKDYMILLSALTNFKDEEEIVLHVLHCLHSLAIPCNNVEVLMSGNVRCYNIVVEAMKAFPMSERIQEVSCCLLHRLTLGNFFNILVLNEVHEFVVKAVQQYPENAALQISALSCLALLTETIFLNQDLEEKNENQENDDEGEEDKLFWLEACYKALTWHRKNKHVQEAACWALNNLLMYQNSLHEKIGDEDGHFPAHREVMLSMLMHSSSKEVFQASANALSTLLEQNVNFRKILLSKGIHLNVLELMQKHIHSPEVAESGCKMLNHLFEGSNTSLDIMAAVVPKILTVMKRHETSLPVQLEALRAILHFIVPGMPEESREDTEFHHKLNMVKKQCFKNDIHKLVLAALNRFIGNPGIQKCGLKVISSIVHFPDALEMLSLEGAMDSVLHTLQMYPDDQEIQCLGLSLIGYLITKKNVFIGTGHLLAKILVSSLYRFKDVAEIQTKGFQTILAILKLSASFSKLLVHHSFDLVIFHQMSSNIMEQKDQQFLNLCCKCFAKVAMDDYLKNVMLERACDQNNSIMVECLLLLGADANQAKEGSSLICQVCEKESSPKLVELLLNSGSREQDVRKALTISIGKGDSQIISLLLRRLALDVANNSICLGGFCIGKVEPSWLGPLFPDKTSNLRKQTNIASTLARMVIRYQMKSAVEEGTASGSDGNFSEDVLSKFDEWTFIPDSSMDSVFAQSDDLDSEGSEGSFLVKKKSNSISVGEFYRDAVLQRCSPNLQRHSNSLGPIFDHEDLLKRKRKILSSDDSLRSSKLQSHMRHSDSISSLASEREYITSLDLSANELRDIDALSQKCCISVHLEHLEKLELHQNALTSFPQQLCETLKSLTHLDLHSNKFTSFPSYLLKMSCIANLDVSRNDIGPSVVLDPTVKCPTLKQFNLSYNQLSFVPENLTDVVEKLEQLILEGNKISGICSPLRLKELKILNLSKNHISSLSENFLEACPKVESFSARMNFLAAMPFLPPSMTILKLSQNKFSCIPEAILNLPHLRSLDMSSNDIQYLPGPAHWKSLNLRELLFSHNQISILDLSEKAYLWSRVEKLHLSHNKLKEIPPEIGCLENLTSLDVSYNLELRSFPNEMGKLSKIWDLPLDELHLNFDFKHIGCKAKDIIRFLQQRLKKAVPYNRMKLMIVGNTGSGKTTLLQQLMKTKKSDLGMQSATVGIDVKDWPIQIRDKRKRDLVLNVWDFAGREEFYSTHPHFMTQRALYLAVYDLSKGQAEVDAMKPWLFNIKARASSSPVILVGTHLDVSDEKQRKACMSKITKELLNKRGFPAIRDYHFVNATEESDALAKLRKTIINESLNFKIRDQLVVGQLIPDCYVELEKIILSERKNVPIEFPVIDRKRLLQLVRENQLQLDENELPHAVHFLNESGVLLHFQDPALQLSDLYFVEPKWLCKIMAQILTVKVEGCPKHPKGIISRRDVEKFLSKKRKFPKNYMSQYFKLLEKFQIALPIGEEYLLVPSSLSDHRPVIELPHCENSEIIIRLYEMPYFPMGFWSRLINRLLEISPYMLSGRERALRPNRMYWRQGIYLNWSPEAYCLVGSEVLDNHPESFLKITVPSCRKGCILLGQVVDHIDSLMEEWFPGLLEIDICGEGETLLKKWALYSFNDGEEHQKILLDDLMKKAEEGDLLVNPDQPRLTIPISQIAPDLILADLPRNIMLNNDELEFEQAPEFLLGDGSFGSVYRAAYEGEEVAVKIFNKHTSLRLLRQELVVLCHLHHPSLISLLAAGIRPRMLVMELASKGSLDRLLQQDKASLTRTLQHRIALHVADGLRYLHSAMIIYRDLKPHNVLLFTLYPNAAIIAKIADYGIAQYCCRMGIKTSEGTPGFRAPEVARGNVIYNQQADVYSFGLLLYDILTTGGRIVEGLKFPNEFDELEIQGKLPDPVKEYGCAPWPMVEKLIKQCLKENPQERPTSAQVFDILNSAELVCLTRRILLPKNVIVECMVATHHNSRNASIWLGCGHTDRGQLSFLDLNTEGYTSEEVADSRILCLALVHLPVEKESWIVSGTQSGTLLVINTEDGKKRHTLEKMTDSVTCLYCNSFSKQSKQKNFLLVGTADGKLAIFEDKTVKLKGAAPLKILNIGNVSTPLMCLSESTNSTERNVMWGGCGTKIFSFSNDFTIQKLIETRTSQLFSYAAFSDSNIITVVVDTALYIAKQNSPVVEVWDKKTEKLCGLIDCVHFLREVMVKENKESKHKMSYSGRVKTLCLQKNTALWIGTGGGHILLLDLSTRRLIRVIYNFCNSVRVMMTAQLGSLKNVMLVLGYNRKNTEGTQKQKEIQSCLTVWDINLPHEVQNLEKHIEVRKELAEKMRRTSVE
T3 sequence (Q92793 whole entry): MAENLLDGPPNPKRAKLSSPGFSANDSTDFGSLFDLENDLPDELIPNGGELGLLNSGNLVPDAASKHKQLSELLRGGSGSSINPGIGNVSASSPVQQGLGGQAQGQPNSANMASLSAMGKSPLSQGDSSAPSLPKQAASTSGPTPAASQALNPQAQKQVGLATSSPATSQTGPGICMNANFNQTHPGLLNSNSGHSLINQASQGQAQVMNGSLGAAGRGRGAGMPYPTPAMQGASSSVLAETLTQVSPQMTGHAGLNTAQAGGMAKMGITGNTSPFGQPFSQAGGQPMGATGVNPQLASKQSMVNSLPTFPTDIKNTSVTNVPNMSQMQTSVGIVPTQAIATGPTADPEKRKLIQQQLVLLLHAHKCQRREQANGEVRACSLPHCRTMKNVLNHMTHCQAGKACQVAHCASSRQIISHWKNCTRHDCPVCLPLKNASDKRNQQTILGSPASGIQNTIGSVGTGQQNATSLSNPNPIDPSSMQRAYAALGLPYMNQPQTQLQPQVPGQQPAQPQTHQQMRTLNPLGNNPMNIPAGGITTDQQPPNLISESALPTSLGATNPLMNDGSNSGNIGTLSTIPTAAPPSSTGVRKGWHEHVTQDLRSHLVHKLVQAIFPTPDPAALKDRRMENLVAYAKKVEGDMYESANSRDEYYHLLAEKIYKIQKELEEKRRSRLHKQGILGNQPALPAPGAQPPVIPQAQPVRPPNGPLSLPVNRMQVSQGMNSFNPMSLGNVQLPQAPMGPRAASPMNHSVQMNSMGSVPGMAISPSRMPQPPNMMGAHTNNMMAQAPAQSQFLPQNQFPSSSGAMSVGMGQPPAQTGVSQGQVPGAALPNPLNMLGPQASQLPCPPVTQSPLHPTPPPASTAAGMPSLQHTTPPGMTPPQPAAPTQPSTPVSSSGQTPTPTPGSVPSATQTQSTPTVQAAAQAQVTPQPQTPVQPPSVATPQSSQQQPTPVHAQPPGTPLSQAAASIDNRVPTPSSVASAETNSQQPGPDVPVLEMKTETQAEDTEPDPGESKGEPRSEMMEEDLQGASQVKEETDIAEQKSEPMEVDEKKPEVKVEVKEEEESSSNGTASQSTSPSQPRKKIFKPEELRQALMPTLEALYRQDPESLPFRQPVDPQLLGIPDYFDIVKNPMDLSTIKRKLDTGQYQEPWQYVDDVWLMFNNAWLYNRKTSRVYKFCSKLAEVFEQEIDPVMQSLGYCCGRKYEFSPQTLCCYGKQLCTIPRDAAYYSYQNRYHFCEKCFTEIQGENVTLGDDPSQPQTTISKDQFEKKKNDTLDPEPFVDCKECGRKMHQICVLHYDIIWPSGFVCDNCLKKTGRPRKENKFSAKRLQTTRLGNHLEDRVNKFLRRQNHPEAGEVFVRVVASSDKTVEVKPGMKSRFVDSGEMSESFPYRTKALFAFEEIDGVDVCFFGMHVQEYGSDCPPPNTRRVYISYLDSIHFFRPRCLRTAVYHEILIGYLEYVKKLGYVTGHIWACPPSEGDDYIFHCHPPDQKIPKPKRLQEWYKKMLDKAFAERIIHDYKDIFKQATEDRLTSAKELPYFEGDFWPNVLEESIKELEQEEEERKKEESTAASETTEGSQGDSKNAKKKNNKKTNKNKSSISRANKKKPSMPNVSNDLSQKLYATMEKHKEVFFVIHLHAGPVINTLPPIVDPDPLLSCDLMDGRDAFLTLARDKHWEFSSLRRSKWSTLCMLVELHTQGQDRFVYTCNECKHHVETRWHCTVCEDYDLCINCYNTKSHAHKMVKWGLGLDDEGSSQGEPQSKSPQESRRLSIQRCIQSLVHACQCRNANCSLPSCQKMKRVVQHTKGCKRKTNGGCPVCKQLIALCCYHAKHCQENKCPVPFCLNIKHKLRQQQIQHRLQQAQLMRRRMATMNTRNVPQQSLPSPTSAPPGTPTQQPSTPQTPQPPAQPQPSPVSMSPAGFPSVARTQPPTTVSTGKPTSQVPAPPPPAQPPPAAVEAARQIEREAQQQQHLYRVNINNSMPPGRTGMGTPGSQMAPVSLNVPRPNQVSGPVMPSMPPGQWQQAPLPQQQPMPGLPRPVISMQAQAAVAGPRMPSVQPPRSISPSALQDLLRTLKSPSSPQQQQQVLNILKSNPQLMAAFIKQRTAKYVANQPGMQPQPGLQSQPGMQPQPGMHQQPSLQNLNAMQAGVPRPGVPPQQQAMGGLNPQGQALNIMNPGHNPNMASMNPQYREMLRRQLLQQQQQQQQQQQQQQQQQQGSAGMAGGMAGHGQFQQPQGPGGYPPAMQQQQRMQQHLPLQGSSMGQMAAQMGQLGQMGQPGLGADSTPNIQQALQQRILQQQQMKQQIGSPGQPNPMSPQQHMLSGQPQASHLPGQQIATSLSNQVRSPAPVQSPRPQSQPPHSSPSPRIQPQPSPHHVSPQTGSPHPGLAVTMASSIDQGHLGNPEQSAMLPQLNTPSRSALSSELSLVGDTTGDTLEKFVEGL

With `CCN1CCN(Cc2ccc(Nc3ncc4c(n3)N(C)c3ccccc3C(=O)N4C)cc2C(F)(F)F)CC1`, the inhibition at 2.5 µM at BRD4.1 stood at 45.8%.

`COc1cc(N2CCN(C)CC2)ccc1Nc1ncc2c(n1)N(C)c1ccccc1C(=O)N2C`: the inhibition at 2.5 µM on BRD4.1 stood at 36.1%.

In the case of `CCOc1cc(N2CCC(O)CC2)ccc1Nc1ncc2c(n1)N(C)c1ccccc1C(=O)N2C`, the inhibition at 2.5 µM at BRD4.1 was determined as 29.5%.

As for `CN1C(=O)c2ccccc2N(C)c2nc(Nc3ccc(N4CCC(O)CC4)cc3)ncc21`, the inhibition at 2.5 µM on BRD4.1 is 50.8%.

As for `COc1cc(C(=O)N2CCC(N3CCN(C)CC3)CC2)ccc1Nc1ncc2c(n1)N(C)c1ccccc1C(=O)N2C` [Compound 1-226], the half-inhibitory concentration (IC50) with MOLM-13 (Homo sapiens) turned out to be 1270 nM; against LRRK2, 7 nM; in the assay with TF-1 (Homo sapiens), 3360 nM; in the assay on MV411 (Homo sapiens, MV4-11) it was 549 nM; in the assay on 797 it was 1300 nM; with NOMO1 (Homo sapiens, NOMO-1), 2000 nM.

With `COc1cc(C(=O)N2CCC(N3CCN(C)CC3)CC2)ccc1N(C)c1ncc2c(n1)N(C)c1ccccc1C(=O)N2C` [Compound 1-284], the IC50 in the assay with MOLM-13 (Homo sapiens) was 4630 nM; with Kasumi-1 (Homo sapiens), 1860 nM; against LRRK2 it was 4000 nM; in the assay on TF-1 (Homo sapiens), 6160 nM; with MV411 (Homo sapiens, MV4-11), 2440 nM; in the assay with 797, 7420 nM. Further, the IC50 in the assay with NOMO1 (Homo sapiens, NOMO-1) is 8600 nM; against BRD4 [1], 1990 nM; at BRDT it was 5550 nM; against BRD4 [2], 2600 nM.

On to `CCN(c1ncc2c(n1)N(C)c1ccccc1C(=O)N2C)c1ccc(C(=O)N2CCC(N3CCN(C)CC3)CC2)cc1OC` [Compound 2-041], for which the IC50 in the assay with MOLM-13 (Homo sapiens) stood at 5740 nM; in the assay on Kasumi-1 (Homo sapiens), 2360 nM; against LRRK2, 3000 nM; in the assay with TF-1 (Homo sapiens) it was 7210 nM; with MV411 (Homo sapiens, MV4-11), 3480 nM; in the assay with 797, 7100 nM. In addition, the IC50 is 8300 nM with NOMO1 (Homo sapiens, NOMO-1); 2.06 nM on BRD4 [1]; 9610 nM against BRDT; 5700 nM against BRD4 [2].

In the case of `CN1C(=O)c2ccccc2N(C)c2nc(Nc3ccc(C(=O)O)cc3OC3CCCC3)ncc21` [Compound 2-043], the IC50 in the assay with MOLM-13 (Homo sapiens) is 6610 nM; with Kasumi-1 (Homo sapiens) it was 4780 nM; with TF-1 (Homo sapiens) it was 7100 nM; with MV411 (Homo sapiens, MV4-11) it was more than 10000 nM; in the assay on 797 it was 1790 nM; in the assay with NOMO1 (Homo sapiens, NOMO-1) it was 6800 nM. The IC50 was 732 nM at BRD4 [1], 2730 nM against BRDT and 1510 nM on BRD4 [2].

With `CN1C(=O)c2ccccc2N(C)c2nc(Nc3ccc(S(N)(=O)=O)cc3)ncc21` [Compound 2-075], the Kd on CREBBP [3] worked out at 23 nM; at BRD4 [5] it was 180 nM. Moreover, the IC50 was found to be 433 nM in the assay with MOLM-13 (Homo sapiens); 96 nM in the assay with Kasumi-1 (Homo sapiens); 2140 nM with TF-1 (Homo sapiens); 252 nM in the assay with MV411 (Homo sapiens, MV4-11); 34 nM with 797; 431 nM against CREBBP [4]. For the same molecule, the IC50 with NOMO1 (Homo sapiens, NOMO-1) came out at 2500 nM; on BRD4 [1] (unit nm [sic]), 970 nM; against BRDT, 2880 nM; on BRD4 [2], 1800 nM.

For the molecule `C[C@@H](Oc1cc(-n2cnc3ccc(CN4CCN(C)CC4)cc32)sc1C(N)=O)c1ccccc1C(F)(F)F` [GSK461364, reference compound], the IC50 is 6.93 nM with MOLM-13 (Homo sapiens); 7.8 nM in the assay with Kasumi-1 (Homo sapiens); 7.1 nM with MV411 (Homo sapiens, MV4-11); 8 nM with 797; 5.91 nM in the assay with NOMO1 (Homo sapiens, NOMO-1); more than 50000 nM on BRD4 [1]. For the same molecule, the “TF-1 IC50” value in the assay with TF-1 (result in words) is recorded as “poor convergence”.

`Cc1sc2c(c1C)C(c1ccc(Cl)cc1)=N[C@@H](CC(=O)OC(C)(C)C)c1nnc(C)n1-2` [JQ1, reference compound]: the IC50 stood at 89.2 nM in the assay with MOLM-13; 48.8 nM with Kasumi-1; 109000 nM with TF-1; 65.6 nM in the assay with MV411; 92 nM with 797; 172 nM with NOMO1.

In the case of `COc1cc(C(=O)N2CCC(N3CCN(C)CC3)CC2)ccc1Nc1ncc2c(n1)N(C)c1ccccc1C(=O)N2C` [drawing 33], on BRD4.1, the inhibition at 2.5 µM amounted to 20.5%.
